Active and inactive are the calls of the source. No cut-off for these calls is given here.
Columns and labels:
Chikungunya virus [1] = assay: Antiviral activity against CHIKV infected in human NHDF cells assessed as reduction in virus titer in cell supernatant by measuring inhibition of plaque formation using Vero cells at 10 uM pretreated with NHDF cells followed by infected with virus incubated for 24 hrs and measured following infection of supernatants with Vero cells for 48 hrs by plaque based methylene blue dye analysis; assay type: functional; conditions: time 72 hrs
[2] = Aqueous solubility of the compound; assay type: physicochemical; conditions: aqueous; read-out: solubility
Chikungunya virus [3] = assay: Antiviral activity against CHIKV infected in human NHDF cells assessed as reduction in virus titer in cell supernatant by measuring inhibition of plaque formation using Vero cells pretreated with NHDF cells followed by infected with virus incubated for 24 hrs and measured following infection of supernatants with Vero cells for 48 hrs by plaque based methylene blue dye analysis; assay type: functional, organism-based
[4] = Cytotoxicity against human NHDF cells assessed as cell viability measured after 24 hrs by Cell Titer Glo luminescent assay; assay type: cell-based; conditions: NHDF cells
[5] = Octanol-aqueous buffer distribution coefficient, log D of the compound by LC-MS analysis; assay type: physicochemical
[6] = Metabolic stability in human liver microsomes assessed as half life in presence of NADPH incubated up to 45 mins by LC-MS/MS analysis; assay type: ADME, Microsome
Chikungunya virus [7] = assay type: functional; conditions: 181-25, C6, time 48 hrs
Chikungunya virus [8] = assay: Antiviral activity against CHIKV 99659 infected in Asian tiger mosquito C6/36 cells assessed as reduction in virus titer in cell supernatant by measuring inhibition of plaque formation using Vero cells and measured following infection of supernatants with Vero cells for 48 hrs pi by serial dilution plaque based methylene blue dye analysis; assay type: functional; conditions: Chikungunya virus, 99659, C6
Chikungunya virus [9] = assay: Antiviral activity against CHIKV 37997 infected in Asian tiger mosquito C6/36 cells assessed as reduction in virus titer in cell supernatant by measuring inhibition of plaque formation using Vero cells and measured following infection of supernatants with Vero cells for 48 hrs pi by serial dilution plaque based methylene blue dye analysis; assay type: functional; conditions: Chikungunya virus, 37997, C6
Mayaro virus = assay: Antiviral activity against Mayaro virus TRVL infected in Asian tiger mosquito C6/36 cells assessed as reduction in virus titer in cell supernatant by measuring inhibition of plaque formation using Vero cells and measured following infection of supernatants with Vero cells for 48 hrs pi by serial dilution plaque based methylene blue dye analysis; assay type: functional
Onyong-nyong virus = assay: Antiviral activity against O'nyong-nyong virus infected in Asian tiger mosquito C6/36 cells assessed as reduction in virus titer in cell supernatant by measuring inhibition of plaque formation using Vero cells and measured following infection of supernatants with Vero cells for 48 hrs pi by serial dilution plaque based methylene blue dye analysis; assay type: functional
[10] = Antiviral activity against Ross river virus infected in Asian tiger mosquito C6/36 cells assessed as reduction in virus titer in cell supernatant by measuring inhibition of plaque formation using Vero cells and measured following infection of supernatants with Vero cells for 48 hrs pi by serial dilution plaque based methylene blue dye analysis; assay type: functional
Una virus = assay: Antiviral activity against Una virus MAC150 infected in Asian tiger mosquito C6/36 cells assessed as reduction in virus titer in cell supernatant by measuring inhibition of plaque formation using Vero cells and measured following infection of supernatants with Vero cells for 48 hrs pi by serial dilution plaque based methylene blue dye analysis; assay type: functional
[11] = test system: Venezuelan equine encephalitis virus; assay: Antiviral activity against Venezuelan equine encephalitis virus TC83 infected in Asian tiger mosquito C6/36 cells assessed as reduction in virus titer in cell supernatant by measuring inhibition of plaque formation using Vero cells and measured following infection of supernatants with Vero cells for 48 hrs pi by serial dilution plaque based methylene blue dye analysis; assay type: functional
[12] = test system: Venezuelan equine encephalitis virus; assay: Antiviral activity against Venezuelan equine encephalitis virus TC83 infected in human […] cells assessed as reduction in virus titer in cell supernatant by measuring inhibition of plaque formation using Vero cells at 10 uM measured following infection of supernatants with Vero cells for 48 hrs pi by serial dilution plaque based methylene blue dye analysis; assay type: functional, NHDF
West Nile virus = assay: Antiviral activity against West nile virus infected in HEK293 cells assessed as reduction in virus titer in cell supernatant by measuring inhibition of plaque formation using Vero cells at 10 uM measured following infection of supernatants with Vero cells for 48 hrs pi by serial dilution plaque based methylene blue dye analysis; assay type: functional
dengue virus type 2 = assay: Antiviral activity against DENV2 infected in HEK293 cells assessed as reduction in virus titer in cell supernatant by measuring inhibition of plaque formation using Vero cells at 10 uM measured following infection of supernatants with Vero cells for 48 hrs pi by serial dilution plaque based methylene blue dye analysis; assay type: functional
[13] = Half life in C57BL/6 mouse at 1 mg/kg, iv; assay type: ADME, organism-based; conditions: in vivo
[14] = Half life in C57BL/6 mouse at 40 mg/kg, po; assay type: ADME, organism-based; conditions: in vivo
[15] = Half life in C57BL/6 mouse at 40 mg/kg, ip; assay type: ADME, organism-based; conditions: in vivo
[16] = Half life in C57BL/6 mouse at 40 mg/kg, sc; assay type: ADME, organism-based; conditions: in vivo
[17] = AUC in C57BL/6 mouse at 1 mg/kg, iv; assay type: ADME, organism-based; set-up: dose 1 mg/kg; conditions: in vivo
[18] = AUC in C57BL/6 mouse at 40 mg/kg, po; assay type: ADME, organism-based; set-up: dose 40 mg/kg; conditions: in vivo
[19] = AUC in C57BL/6 mouse at 40 mg/kg, ip; assay type: ADME, organism-based; set-up: dose 40 mg/kg; conditions: in vivo
[20] = AUC in C57BL/6 mouse at 40 mg/kg, sc; assay type: ADME, organism-based; set-up: dose 40 mg/kg; conditions: in vivo
[21] = Cmax in C57BL/6 mouse at 40 mg/kg, po; assay type: ADME, organism-based; set-up: route oral, dose 40 mg/kg; conditions: in vivo
[22] = Cmax in C57BL/6 mouse at 40 mg/kg, ip; assay type: ADME, organism-based; set-up: route intraperitoneal, dose 40 mg/kg; conditions: in vivo
[23] = Cmax in C57BL/6 mouse at 40 mg/kg, sc; assay type: ADME, organism-based; set-up: route subcutaneous, dose 40 mg/kg; conditions: in vivo
[24] = Oral bioavailability in C57BL/6 mouse at 40 mg/kg; assay type: ADME, organism-based; conditions: in vivo
[25] = Bioavailability in C57BL/6 mouse at 40 mg/kg, ip; assay type: ADME, organism-based; conditions: in vivo
[26] = Bioavailability in C57BL/6 mouse at 40 mg/kg, sc; assay type: ADME, organism-based; conditions: in vivo
Chikungunya virus [27] = assay: Antiviral activity against CHIKV infected in C57BL/6 mouse right foot assessed as reduction in serum of ipsilateral tissue at 80 mg/kg, po pretreated 2 hrs before infection followed treated twice a day for 3 days and measured 12 hr post infection of last dose by dilution plaque assay on Vero cells; assay type: functional, organism-based; conditions: time 86.0 hrs
Chikungunya virus [28] = assay: Antiviral activity against CHIKV infected in C57BL/6 mouse right foot assessed as reduction in serum of contralateral ankles tissue at 80 mg/kg, po pretreated 2 hrs before infection followed treated twice a day for 3 days and measured 12 hr post infection of last dose by dilution plaque assay on Vero cells; assay type: functional, organism-based; conditions: time 86.0 hrs
Chikungunya virus [29] = assay: Antiviral activity against CHIKV infected in C57BL/6 mouse right foot assessed as reduction in site of infection at 80 mg/kg, po pretreated 2 hrs before infection followed treated twice a day for 3 days and measured 12 hr post infection of last dose by dilution plaque assay on Vero cells; assay type: functional, organism-based; conditions: time 86.0 hrs
Chikungunya virus [30] = assay: Antiviral activity against CHIKV infected in C57BL/6 mouse right foot assessed as reduction in spleen at 80 mg/kg, po pretreated 2 hrs before infection followed treated twice a day for 3 days and measured 12 hr post infection of last dose by dilution plaque assay on Vero cells; assay type: functional, organism-based; conditions: time 86.0 hrs
Chikungunya virus [31] = assay: Antiviral activity against CHIKV infected in C57BL/6 mouse right foot assessed as reduction in quadriceps tissue at 80 mg/kg, po pretreated 2 hrs before infection followed treated twice a day for 3 days and measured 12 hr post infection of last dose by dilution plaque assay on Vero cells; assay type: functional, organism-based; conditions: time 86.0 hrs
[32] = Toxicity in CHIKV infected in C57BL/6 mouse right foot assessed as body weight change at 80 mg/kg, po pretreated 2 hrs before infection followed treated twice a day for 3 days and measured 12 hr post infection of last dose; assay type: organism-based; conditions: in vivo, 86 h
Chikungunya virus [33] = assay: Antiviral activity against CHIKV-nLuc RNA transfected NHDF cells assessed as decrease in Nano-luc signal at 20 uM pretreated 24 hrs before transfection in presence of uridine measured after 24 hrs by Nano-Glo luciferase assay; assay type: functional, organism-based; conditions: time 48.0 hrs
Chikungunya virus [34] = assay: Antiviral activity against CHIKV-nLuc RNA transfected NHDF cells assessed as decrease in Nano-luc signal at 20 uM pretreated 24 hrs before transfection in presence of guanosine measured after 24 hrs by Nano-Glo luciferase assay; assay type: functional, organism-based
[35] = Cytotoxicity against HEK293 cells at 10 uM; assay type: cell-based; conditions: human
[36] = target: Dihydroorotate dehydrogenase (quinone), mitochondrial (Homo sapiens, UniProt Q02127)
Dihydroorotate dehydrogenase (quinone), mitochondrial, sequence (Q02127 whole entry): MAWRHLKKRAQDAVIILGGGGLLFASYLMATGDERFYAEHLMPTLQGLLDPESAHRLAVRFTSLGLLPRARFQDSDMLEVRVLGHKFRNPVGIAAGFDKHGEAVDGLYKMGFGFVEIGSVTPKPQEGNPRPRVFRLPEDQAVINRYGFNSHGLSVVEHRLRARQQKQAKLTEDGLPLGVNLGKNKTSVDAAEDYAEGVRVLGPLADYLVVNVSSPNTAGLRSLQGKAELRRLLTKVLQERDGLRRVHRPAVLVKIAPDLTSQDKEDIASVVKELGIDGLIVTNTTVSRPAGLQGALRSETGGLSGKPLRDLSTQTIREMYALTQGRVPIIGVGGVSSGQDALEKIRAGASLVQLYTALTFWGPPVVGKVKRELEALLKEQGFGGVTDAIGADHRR

Structure (SMILES): COc1cc2c(cc1C(=O)Nc1ccc(C(C)(C)C#N)cc1)CCCCC2
- log(activity) (Chikungunya virus [1]): 4.5
- solubility [2]: < 1 µM
- EC50 (Chikungunya virus [3]): 270 nM
- CC50 at 24 h [4]: > 30000 nM
- logD [5]: > 4.4
- half-life [6]: 132 h
- EC90 (Chikungunya virus [7]): 980 nM
- EC90 (Chikungunya virus [8]): 1100 nM
- EC90 (Chikungunya virus [9]): 1500 nM
- EC90 (Mayaro virus): 2300 nM
- EC90 (Onyong-nyong virus): 890 nM
- EC90 [10]: 850 nM
- EC90 (Una virus): 2500 nM
- EC90 [11]: 2100 nM
- log(activity) [12]: 3.1
- log(activity) (West Nile virus): 3.4
- log(activity) (dengue virus type 2): 2
- half-life [13]: 2.02 h
- half-life [14]: 9.9 h
- half-life [15]: 18.5 h
- half-life [16]: 18.6 h
- AUC [17]: 497 ng·h/mL
- AUC [18]: 7950 ng·h/mL
- AUC [19]: 8570 ng·h/mL
- AUC [20]: 744 ng·h/mL
- Cmax [21]: 642 ng/mL
- Cmax [22]: 858 ng/mL
- Cmax [23]: 90 ng/mL
- bioavailability [24]: 41%
- bioavailability [25]: 43%
- bioavailability [26]: 4%
- Activity (Chikungunya virus [27]): inactive
- Activity (Chikungunya virus [28]): inactive
- Activity (Chikungunya virus [29]): inactive
- Activity (Chikungunya virus [30]): Active
- Activity (Chikungunya virus [31]): Active
- Activity [32]: Non-Toxic
- Activity (Chikungunya virus [33]): inactive
- Activity (Chikungunya virus [34]): Active
- CC50 [35]: > 30000 nM
- IC50 [36]: 310 nM

From ChEMBL document CHEMBL4834424, “Targeting Chikungunya Virus Replication by Benzoannulene Inhibitors” (J Med Chem, 2021)
